Here are results for one compound from patent publication US20240090505A1, “MULTI-SOLVENT PESTICIDAL COMPOSITIONS INCLUDING SULFOXIMINE” (CLARKE MOSQUITO CONTROL PRODUCTS, INC., priority 2020, published 2024).

The assay deals with Culex sp. mosquitos. Briefly: Laboratory test of samples with and without surfactant (Pluronic L92), knockdown and mortality. The format is in vivo. Particulars: propylene carbonate:tributyl O-acetylcitrate 1:1. As to the method: Various amounts of different surfactants were evaluated to determine possible impacts on efficacy. In one set of trials, different amounts of sulfoxaflor were tested with and without a surfactant (Pluronic L92 from BASF).

As to `CC(c1ccc(C(F)(F)F)nc1)S(C)(=O)=NC#N` (stereo not drawn) [Sulfoxaflor, sulfoxaflor], the 1-hour knockdown runs as follows: (0.5 wt% sulfoxaflor, 20 wt% surfactant (Pluronic L92)) 2%; (0.5 wt% sulfoxaflor, no surfactant) 0%; (1 wt% sulfoxaflor, no surfactant) 18%.
